Source: patent US20180230160A1, “2-AMINO-7A-PHENYL-3,4,4A,5,7,7A-HEXAHYDROFURO[3,4-B]PYRIDINES AS BACE1 INHIBITORS” (H. Lundbeck A/S, priority 2015, published 2018)
Like-named read-outs stand apart in the source and are kept apart here.

Legend:
human BACE1 [1] = target: T1, human BACE1 (Homo sapiens, UniProt P56817); assay: BACE1 binding assay (SPA-based radioligand binding); set-up: biotin (biotinylated form); made in house; host or cells: Freestyle HEK293 cells; settings: pH 4.5, 10 nM radioligand, Ki=IC50/(1+L/Kd)
T1 sequence (P56817 46-501): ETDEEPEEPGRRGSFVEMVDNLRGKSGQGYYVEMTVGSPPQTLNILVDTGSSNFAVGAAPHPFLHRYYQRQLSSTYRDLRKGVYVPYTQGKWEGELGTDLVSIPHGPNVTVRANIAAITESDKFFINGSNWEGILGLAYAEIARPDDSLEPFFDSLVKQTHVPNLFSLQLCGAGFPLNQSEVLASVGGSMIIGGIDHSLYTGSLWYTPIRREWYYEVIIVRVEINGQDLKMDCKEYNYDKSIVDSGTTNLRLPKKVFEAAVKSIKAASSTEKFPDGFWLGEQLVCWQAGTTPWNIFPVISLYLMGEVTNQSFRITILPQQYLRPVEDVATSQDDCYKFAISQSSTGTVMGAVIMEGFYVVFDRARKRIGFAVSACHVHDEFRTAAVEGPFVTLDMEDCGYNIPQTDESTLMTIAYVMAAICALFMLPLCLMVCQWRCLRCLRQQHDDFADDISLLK
Procedure: The binding assay was performed as SPA-based assay using a biotinylated form of human BACE1 recombinantly expressed and subsequently purified from Freestyle HEK293 cells. The binding assay was run in a 50 mM sodium acetate buffer, pH 4.5 containing 50 mM NaCl and 0.03% Tween-20 in white clear bottom 384 plates (Corning #3653). 10 nM (final concentration) radioligand ([^3H]—N-((1S,2R)-1-benzyl-3-cyclopropylamino-2-hydroxy-propyl)-5-(methanesulfonyl-methyl-amino)-N—((R)-1-phenyl-ethyl)-isophthalamide) (TRQ11569 purchased from GE Healthcare) was mixed with test compound at a given concentration, 6 nM (final concentration) human BACE1 and 25 μg Streptavidin coated PVT core SPA beads (RPNQ0007, GE Healthcare Life Sciences) in a total volume of 40 μl. Several concentrations of each test compound were tested in the assay for […] determination. The plates were incubated for one hour at room temperature and counted in a Wallac Trilux counter. Total and non-specific binding were determined using buffer and 1 μM (final concentration) of the high affinity BACE1 reference inhibitor (S)-6-[3-chloro-5-(5-prop-1-ynyl-pyridin-3-yl)-thiophen-2-yl]-2-imino-3,6-dimethyl-tetrahydro-pyrimidin-4-one, respectively. For each test compound, a 1050 value (the concentration mediating 50% inhibition of the specific binding of the radioligand) was determined from concentration-response curve and used to calculate the Ki from the equation Ki=IC50/(1+L/Kd), where L and Kd are the final concentration of the radioligand used in the assay and the dissociation constant of the radioligand, respectively. The Kd of the radioligand was determined from saturation binding experiments.

P-gp (MDR1) = assay: MDCK-MDR1 assay (permeability, efflux ratio); format: in vitro ADME; settings: dog, Papp BA/Papp AB, 60-minute incubation
Procedure: The permeability of the test compounds was assessed in MDCK-MDR1 cells that were cultured to confluency (4-6 days) in a 96 transwell plate. Test compounds were diluted with the transport buffer (HBSS+1% BSA) to a concentration of 0.5 μM and applied to the apical or basolateral side of the cell monolayer. Permeation of the test compounds from A to B direction or B to A direction was determined in triplicate over a 60-minute incubation time at 37° C. and 5% CO2 with a relative humidity of 95%. Test compounds were quantified by LC-MS/MS analysis based on the peaks area ratios of analyte/IS in both the receiver and donor wells of the transwell plate. The apparent permeability coefficient Papp (cm/s) was calculated using the equation: […]
Where dCr/dt is the cumulative concentration of compound in the receiver chamber as a function of time (μM/s); Vr is the solution volume in the receiver chamber (0.05 mL on the apical side; 0.25 mL on the basolateral side); A is the surface area for the transport, i.e. 0.0804 cm^2 for the area of the monolayer; CO is the initial concentration in the donor chamber (μM).

[2] = Compound exposure in rat brain and plasma after oral dosing (DMPK analysis); format: in vivo; settings: male, Sprague Dawley, 3 hours post dose; for concentration at 3 h: read-out: Exp (exposure); for Kp at 3 h: brain/plasma, read-out: Brain/Plasma ratio
Procedure: (§1) Young adult Male Sprague Dawley rats of approximately 250 g weight were purchased from Charles River and received 0-30 mg/kg of vehicle (10% HP betaCD+1M MeSO4, pH 2.5) or test compounds (dissolved in vehicle) only by oral gavage (p.o). The compounds are dosed at a volume of 5 ml/kg. Cohorts of 5-10 animals were established for each treatment condition.
(§2) At T=180 minutes after initial dosing the animals were stunned and decapitated with a guillotine. Trunk-blood was sampled in EDTA coated tubes after decapitation of the animal. The blood was centrifuged at 2200G at 4° C. for 15 minutes and the plasma was collected and frozen at −80° C. The blood was aliquoted for Aβ ELISA and DMPK analysis. Immediately following sacrifice, the brain was extracted and split into 2 halves. The right hemibrains were snap frozen on dry ice and stored at −80° C. The left half was dissected; with the front forebrain taken for Aβ ELISA and the remainder used for DMPK analysis. These samples were also snap frozen on dry ice and stored at −80° C. until use for analysis.
The results of the administration of representative Compounds of Examples 1, 2, 5, […], of brain and plasma samples collected at 3 hours post dose and then following exposures, as described above, are tabulated below.

Aβ40 peptide = assay: Assessment of Aβ peptide levels in rat brain and plasma following BACE1 inhibition (Aβ40 ELISA); format: in vivo; settings: 3 hours post dose, vs vehicle
Procedure: Assessment of Aβ Peptide Levels in Rat Brain and Plasma Following BACE1 Inhibition. Animals.
as §1, §2
The cortex samples were thawed slightly on wet ice before they were homogenized with a small volume dispersing instrument (T10 basic ULTRA-TURRAX®) which was set at speed 5 for approximately 5-7 sec. The tissue was processed in a 10 times volume of the weight, for example 100 mg of tissue was homogenized in 1000 μL of Homogenization buffer. Homogenization buffer: 50 ml Milli Q water+50 nM NaCl+0.2% Diethylamin (DEA)+1 tablet of Complete Protease inhibitor cocktail+1 nM 4-(2-aminoethyl) benzenesulfonyl fluoride hydrochloride irreversible serine protease inhibitor (AEBSF).
After homogenization 450 μL aliquots of the samples are collected into a 1.5 ml Eppendorf tube and placed on wet ice, 0.5% NP-40 (50 ul) was added to all samples and then they were incubated on ice for 30 min. After which all samples were sonicated using an Ultrasonic homogenizer with 20 kHz homogeneous sound (SONOPLUS HD2070, Bandelin Electronic) 10 pulse set at 12-13% power to extract all the Aβ species. The samples were then centrifuged (Ole Dich 157 MPRF Micro centrifuge) at 20000G for 20 minutes at 4° C. After centrifugation 285 μL of the supernatant was pipetted into 600 μL microtubes tubes and neutralized with 15 μL of 1M Tris-HCL buffer.
WAKO 294-62501 Human/Rat Abeta amyloid (40) kit was used for all ELISA analyses. 30 μL plasma samples or 30 μL of the cortex supernatants generated as described above were placed in 600 μL microtubes tubes on wet ice. To this 30 μL of 8M urea (AppliChem A1049, 9025) was added to generate a 2-fold dilution. Both plasma and cortex supernatants were incubated on ice for 30 min. Standard rows were prepared from the standard peptide stock provided in the kit and standard diluent containing 1.6M urea (200 μL 8M urea+800 μL of standard diluent) and 0.8M urea (400 μL 8M Urea+3600 μL Standard diluent). A serial 2-fold dilution of Aβ40 from 100 pmol/ml to 0 pmol/L was prepared for the assay.
After incubation with urea, all samples were further diluted by addition of 5 times standard diluent from the Kit. This was done by adding 240 μL Standard Diluent to 60 μL sample/urea mixture, which was then mixed well. 100 μL of each diluted sample was pipetted into designated wells of the ELISA plate in duplicates. The plate was then covered and incubated overnight at 4° C. The following day, the ELISA kit was brought to room temperature before use. The incubated plate was washed 5 times with the 20× washing solution diluted in Milli Q water. 100 μL HRP-conjugate was applied to each well, and the plate was covered and incubates at 4° C. for 1 hr. The wash was repeated again for 5 times. 100 μL 3,3′,5,5′-Tetramethylbenzidine (TMB) solution was applied to each well and the plate was covered and incubated in the dark at room temperature for 30 minutes. […]

human BACE1 [3] = target: T1, human BACE1; assay: BACE1 efficacy assay (FRET-based, commercial BACE1 kit); format: biochemical; set-up: purchased Life Technologies P2985; settings: 10 μM test compound
Procedure: The efficacy assay was performed as a FRET-based assay using a commercially available BACE1 kit (Life Technologies, P2985). 2 μl test compound at 10 μM (final concentration) and 15 μl BACE1 enzyme from the kit (final concentration 3 nM) were preincubated for 15 minutes at room temperature before addition of 15 μl of substrate from the kit (250 nM final concentration) and incubated for additional 90 minutes at room temperature. The assay plate was subsequently read in a Pherastar (Ex540/Em590). The enzyme activity observed in presence of test compound were normalized to the enzyme activity observed in presence of buffer and 10 μM (final concentration) of the high affinity BACE1 reference inhibitor (S)-6-[3-Chloro-5-(5-prop-1-ynyl-pyridin-3-yl)-thiophen-2-yl]-2-imino-3,6-dimethyl-tetrahydropyrimidin-4-one, respectively. The efficacy of the test compounds was evaluated at 10 μM (final concentration) and defined as the percent inhibition of the enzyme activity using the equation % inhibition=100%−normalized enzyme activity in percent.

SMILES	Ki (human BACE1 [1]) [nM]	efflux ratio at 60 min, 0.5 μM (P-gp (MDR1))	concentration at 3 h ([2]; Brain, 10 mg/kg p.o.) [ng/g]	concentration at 3 h ([2]; Brain, 30 mg/kg p.o.) [ng/g]	concentration at 3 h ([2]; Plasma, 10 mg/kg p.o.) [ng/g]	concentration at 3 h ([2]; Plasma, 30 mg/kg p.o.) [ng/g]	Kp at 3 h ([2]; 10 mg/kg p.o.)	Kp at 3 h ([2]; 30 mg/kg p.o.)	inhibition at 10 µM (human BACE1 [3]) [%]	Aβ40 reduction (Aβ40 peptide; Brain, 10 mg/kg p.o.) [%]	Aβ40 reduction (Aβ40 peptide; Brain, 30 mg/kg p.o.) [%]	Aβ40 reduction (Aβ40 peptide; Plasma, 10 mg/kg p.o.) [%]	Aβ40 reduction (Aβ40 peptide; Plasma, 30 mg/kg p.o.) [%]
C[C@]1(F)C[C@]2(F)COC[C@]2(c2cc(NC(=O)c3ccc(F)cn3)ccc2F)N=C1N [Example 2, N-(3-((3S,4aR,7aS)-2-amino-3,4a-difluoro-3-methyl-3,4,4a,5,7,7a-hexahydrofuro[3,4-b]pyridin-7a-yl)-4-fluorophenyl)-5-fluoropicolinamide]	31	1.27	37	136	69	244	0.54	0.56	–	25	24	48	47
COc1cnc(C(=O)Nc2ccc(F)c([C@]34COC[C@@]3(F)C[C@](C)(F)C(N)=N4)c2)cn1 [Example 5, N-(3-((3S,4aR,7aS)-2-amino-3,4a-difluoro-3-methyl-3,4,4a,5,7,7a-hexahydrofuro[3,4-b]pyridin-7a-yl)-4-fluorophenyl)-5-methoxypyrazine-2-carboxamide]	17	0.91	204	695	174	598	1.17	1.16	–	40	47	41	45
C[C@@]1(F)C[C@]2(F)COC[C@]2(c2cc(NC(=O)c3ccc(F)cn3)ccc2F)N=C1N [Example 12, N-(3-((3R,4aR,7aS)-2-amino-3,4a-difluoro-3-methyl-3,4,4a,5,7,7a-hexahydrofuro[3,4-b]pyridin-7a-yl)-4-fluorophenyl)-5-fluoropicolinamide]	24	1.67	–	–	–	–	–	–	103	–	–	–	–
COc1ccc(C(=O)Nc2ccc(F)c([C@]34COC[C@H]3C[C@](F)(CF)C(N)=N4)c2)nc1 [Example 15, N-(3-((3R,4aS,7aS)-2-amino-3-fluoro-3-(fluoromethyl)-3,4,4a,5-tetrahydrofuro[3,4-b]pyridin-7a-yl)-4-fluorophenyl)-5-methoxypicolinamide]	65	1.19	–	–	–	–	–	–	111	–	–	–	–
NC1=N[C@@]2(c3cc(NC(=O)c4ccc(F)cn4)ccc3F)COC[C@H]2C[C@]1(F)CF [Example 16, N-(3-((3R,4aS,7aS)-2-amino-3-fluoro-3-(fluoromethyl)-3,4,4a,5-tetrahydrofuro[3,4-b]pyridin-7a-yl)-4-fluorophenyl)-5-fluoropicolinamide]	88	0.97	–	–	–	–	–	–	110	–	–	–	–
COc1ccc(C(=O)Nc2cc(F)c(F)c([C@]34COC[C@H]3C[C@](F)(CF)C(N)=N4)c2)nc1 [Example 17, N-[3-[(3R,4aS,7aS)-2-amino-3-fluoro-3-(fluoromethyl)-4,4a,5,7-tetrahydrofuro[3,4-b]pyridin-7a-yl]-4,5-difluoro-phenyl]-5-methoxy-pyridine-2-carboxamide]	99	1.25	–	–	–	–	–	–	105	–	–	–	–

Now from value to molecule, other results behind:

Ki (human BACE1 [1]) [nM]	efflux ratio at 60 min, 0.5 μM (P-gp (MDR1))	concentration at 3 h ([2]; Brain, 10 mg/kg p.o.) [ng/g]	concentration at 3 h ([2]; Brain, 30 mg/kg p.o.) [ng/g]	concentration at 3 h ([2]; Plasma, 10 mg/kg p.o.) [ng/g]	concentration at 3 h ([2]; Plasma, 30 mg/kg p.o.) [ng/g]	Kp at 3 h ([2]; 10 mg/kg p.o.)	Kp at 3 h ([2]; 30 mg/kg p.o.)	inhibition at 10 µM (human BACE1 [3]) [%]	SMILES	Aβ40 reduction (Aβ40 peptide; Brain, 10 mg/kg p.o.) [%]	Aβ40 reduction (Aβ40 peptide; Brain, 30 mg/kg p.o.) [%]	Aβ40 reduction (Aβ40 peptide; Plasma, 10 mg/kg p.o.) [%]	Aβ40 reduction (Aβ40 peptide; Plasma, 30 mg/kg p.o.) [%]
110	1.31	–	–	–	–	–	–	105	COc1cnc(C(=O)Nc2cc(F)c(F)c([C@]34COC[C@H]3C[C@](F)(CF)C(N)=N4)c2)cn1 [Example 18, N-[3-[(3R,4aS,7aS)-2-amino-3-fluoro-3-(fluoromethyl)-4,4a,5,7-tetrahydrofuro[3,4-b]pyridin-7a-yl]-4,5-difluoro-phenyl]-5-methoxy-pyrazine-2-carboxamide]	–	–	–	–
140	0.71	–	–	–	–	–	–	103	NC1=N[C@@]2(c3cc(NC(=O)c4ccc(F)cn4)ccc3F)COC[C@H]2C[C@@]1(F)CF [Example 20, N-(3-((3S,4aS,7aS)-2-amino-3-fluoro-3-(fluoromethyl)-3,4,4a,5-tetrahydrofuro[3,4-b]pyridin-7a-yl)-4-fluorophenyl)-5-fluoropicolinamide]	–	–	–	–
